# Laboratory results taken from US20100234381A1, “BIOMARKERS AND METHODS FOR DETERMINING SENSITIVITY TO VASCULAR ENDOTHELIAL GROWTH FACTOR RECEPTOR-2 MODULATORS” (Bristol-Myers Squibb Company, priority 2007, published 2010).
# pIC50: −log10 of the molar value. Entries after “also recorded” stand apart in the source; their conditions may differ.
# How the values were obtained:
# [1] = tested on: FGF2-stimulated cancer cell lines; assay: FGF2-stimulated tumor cell proliferation, panel of cancer cell lines; type: cell-based; details: for Brivanib-resistant (>3 μM) cell lines, number / Brivanib-sensitive (≦3 μM) cell lines, number: following FGF2 stimulation
# Description: […], GEO, L2987, 786-0, A549, A498, Du145, PANC-1, ACHN, HT1197, CALU6, SKOV3, 769-[…], HCT166 and UMUC3. […] Gene expression profiling was performed on RNA samples from tumor cell lines using AFFYMETRIX® GeneChip System.
# [2] = tested on: VEGF-stimulated cancer cell lines; assay: VEGF-stimulated tumor cell proliferation, panel of cancer cell lines; type: cell-based; details: in vitro
# [3] = tested on: A2780 ovarian cancer cells; assay: FGF2-induced proliferation of A2780 ovarian cancer cells (modified MTS assay); type: cell-based
# Description: (§1) Cell proliferation was determined by a modified MTS assay with […] 96® Aqueous One Solution Reagent (Promega, Madison, Wis.). A2780 ovarian cancer cells, MIAPAC-2 pancreatic cancer cells, or GEO colon cancer cells were seeded on 96-well flat-bottomed tissue culture plates (Becton Dickinson, San Jose, Calif.) at a concentration of 3×10^3 cells/well in RPMI 1640 with 1% fetal bovine serum at 37° C. in 5% carbon dioxide/95% air in the presence of 100 units/ml penicillin, 100 μg/ml streptomycin and allowed to adhere to the plate overnight. Then the cells were incubated in the presence of each concentration of 0 (control), 0.3, 0.6, 1.25, 2.5, 5, 10 ng/ml of FGF2 or VEGF for another 72 hours at 37° C. in a humidified atmosphere of 5% CO2 in air. After treatment, 20 μl of […] 96® Aqueous One Solution Reagent was dropped into each well of plates. After 180 minutes incubation, the optical densities (OD) of these samples were directly measured using SPECTRAMAX® plus (Molecular Device, California) and reference wavelength of 490 nm. The OD of control samples was regarded as 100. Each condition was performed with 4 wells and experiment was repeated twice.
# [4] = tested on: MIAPAC-2 pancreatic cancer cells; assay: FGF2-induced proliferation of MIAPAC-2 pancreatic cancer cells (modified MTS assay); type: cell-based
# Description: as §1
# pERK and pAKT = assay: Western blot of downstream pERK and pAKT after FGF2 stimulation; type: cell-based; details: 2 μm brivanib, 40 ng/ml FGF2, HCC cell line
# Description: Anti-FGFR1, Anti-VEGFR2, Anti-ERK, Anti-AKT, and Anti-alpha tubulin antibodies were also utilized. Blots were incubated with indicated primary antibodies and 1:7500 horseradish peroxidase-conjugated secondary antibodies. All primary antibodies were used at a final concentration of 1 μg/ml. The blots were then visualized with a chemiluminescent detection system.
# FGF pathway = assay: Gene set enrichment analysis of FGF pathway expression after FGF2 stimulation; type: cell-based; details: 1 μm drug after FGF2 stimulation
# Description: The expression profiles of individual genes within each pathway were analyzed, and the log of the change in expression profile for each condition was measured. Overall, 67 pathways were analyzed. Each gene analyzed for each pathway have not been provided. But, 46 genes from the FGF pathway, 62 genes from the VEGF pathway were analyzed, and a larger generic number of genes consisting of 92 genes for the FGF pathway were analyzed using the AMBION® gene set.
# [5] = tested on: FGF2 growth factor gene expression; assay: FGF2 gene expression, AFFYMETRIX human arrays
# VEGF gene expression = assay: VEGF gene expression, AFFYMETRIX human arrays
# GEO colon cancer model = assay: Tumor growth inhibition in GEO colon cancer model; type: in vivo; details: compared to bevacizumab
# collagen IV (CIV) = assay: Plasma collagen IV (CIV) ELISA in patients; type: in vivo, human; details: for reduction in median CIV levels: regardless of FGF-2 status
# Description: Plasma collagen IV (CIV) was measured using an enzyme-linked immunosorbent assay (ELISA) kit obtained from Biotrin International, Ltd. (Dublin, Ireland). […] Per the manufacturer's kit insert and instructions, the kit standards, QCs and EDTA plasma patient samples were diluted with conjugate (anti-collagen IV mouse Fab′ conjugated to horseradish peroxidase, containing 30 mg/l Proclin 300 as a preservative). Diluted samples were incubated for 30 minutes in wells coated with a second anti-collagen IV antibody, and then washed 3 times with kit wash buffer (phosphate buffer with Tween 20 and proclin 300 as a preservative. Ready to use TMB substrate was added and incubated for 30 minutes. The reaction was stopped by the addition of 1M H2SO4. The absorbance at 450 nm using 630 nm as a reference was measured using a SPECTRAMAX® plate reader (Molecular Devices, Sunnyvale, Calif.). Softmax Pro 4.8 software was used to generate a 4-parameter logistic (4-PL) curve fit using the CIV kit standards.
# sVEGFR2 = assay: Plasma sVEGFR2 change from baseline in patients; type: in vivo, human
substance,measurement,setting,value
"[(1R),2S]-2-Aminopropionic acid 2-[4-(4-fluoro-2-methyl-1H-indol-5-yloxy)-5-methylpyrrolo[2,1-f][1,2,4]triazin-6-yloxy]-1-methylethyl ester [brivanib]","Brivanib-resistant (>3 μM) cell lines, number",[1]; Bladder cell lines,2
same,"Brivanib-sensitive (≦3 μM) cell lines, number",[1]; Bladder cell lines,1
same,"Brivanib-sensitive (≦3 μM) cell lines, number",[1]; Colon cell lines,0
same,"Brivanib-sensitive (≦3 μM) cell lines, number",[1]; NSCLC cell lines,2
same,"Brivanib-resistant (>3 μM) cell lines, number",[1]; Prostate cell lines,1
same,"Brivanib-resistant (>3 μM) cell lines, number",[1]; Total of cell lines,10
same,inhibition of FGF2-induced tumor cell proliferation,"[1]; panel of cancer cell lines, in vitro",inhibited FGF2-induced tumor cell proliferation in 16 cancer cell lines; also recorded: inhibits FGF2-induced tumor cell line growth with much lower IC50 values than sunitinib
same,effect on tumor cell proliferation in the presence of VEGF,[2],no affect on tumor cell proliferation
same,effect on FGF2-induced cellular proliferation,[3]; A2780 ovarian cancer cells,potently inhibited; also recorded: inhibits ovarian cancer and pancreatic cancer cell line growth directly
same,inhibition of FGF2-induced cell growth,[3]; ovarian cancer cell line A2870,> 50%
same,pIC50,"[3]; ovarian cancer cell line A2870, read-out: IC50, FGF2-induced cell growth",> 6.00
same,effect on FGF2-induced cellular proliferation,[4]; MIAPAC-2 pancreatic cancer cells,potently inhibited; also recorded: inhibits ovarian cancer and pancreatic cancer cell line growth directly
same,inhibition of FGF2-induced cell growth,[4]; pancreatic cancer cell line MIAPAC-2,> 50%
same,pIC50,"[4]; pancreatic cancer cell line MIAPAC-2, read-out: IC50, FGF2-induced cell growth",> 6.30
same,downstream pathway pERK and pAKT,pERK and pAKT,affecting downstream pathway genes such as pERK and pAKT
same,FGF2-induced FGF pathway up-regulation (expression),FGF pathway,inhibited only by brivanib; also recorded: abrograted only in the presence of only brivanib
same,modulation of FGF2 growth factor gene expression levels,[5],modulated FGF2 growth factor gene expression levels
same,modulation of VEGF gene expression levels,VEGF gene expression,modulated VEGF gene expression levels
same,ability to inhibit tumor growth,GEO colon cancer model,increased affect on the ability to inhibit tumor growth when compared to bevacizumab
same,reduction in median CIV levels,"collagen IV (CIV); 320 mg, after 8 days",2.6%
same,reduction in median CIV levels,"collagen IV (CIV); 320 mg, after 26 days",2.3%
same,reduction in median CIV levels,"collagen IV (CIV); 800 mg, after 8 days",24%
same,reduction in median CIV levels,"collagen IV (CIV); 800 mg, after 26 days",31%
same,COL IV change from baseline (%) (Day 26) (n = 42),collagen IV (CIV); FGF2+ patients (n = 24),−30%
same,COL IV change from baseline (%) (Day 26) (n = 42),collagen IV (CIV); FGF2− patients (n = 19),−16%
same,median decrease of CIV levels from baseline,"collagen IV (CIV); patients with FGF2(−) tumors, after 8 days",4.9%
same,median decrease of CIV levels from baseline,"collagen IV (CIV); patients with FGF-2(+) tumors, after 8 days",16.1%
same,median reduction from baseline in CIV levels,"collagen IV (CIV); patients with FGF-2(+) tumors, after 26 days",30.7%
same,median reduction from baseline in CIV levels,"collagen IV (CIV); patients with FGF-2(−) tumors, after 26 days",4.3%
same,sVEGFR2 change from baseline (%) (Day 26) (n = 39),sVEGFR2; FGF2+ patients (n = 24),−23%
same,sVEGFR2 change from baseline (%) (Day 26) (n = 39),sVEGFR2; FGF2− patients (n = 19),−15%
